Source: ChEMBL document CHEMBL3044572, “Discovery of 2-(4-cyano-3-trifluoromethylphenyl amino)-4-(4-quinazolinyloxy)-6-piperazinyl(piperidinyl)-s-triazines as potential antibacterial agents” (2012)
Values after ≈ are worked out from the molar mass of the structure shown. Active and inactive are the calls of the source. The calls are words filed in the database; no cut-off is given here.

Key:
Candida albicans [1] = assay: Antimicrobial activity against Candida albicans MTCC 183 by agar streak dilution method; type: functional
Staphylococcus aureus [2] = assay: Antimicrobial activity against Staphylococcus aureus MTCC 96 by paper-disk diffusion method; type: functional
Salmonella typhi [3] = assay: Antimicrobial activity against Salmonella enterica subsp. enterica serovar Typhi MTCC 733 by paper disk diffusion method; type: functional
Aspergillus niger [4] = assay: Antimicrobial activity against Aspergillus niger MTCC 282 by paper-disk diffusion method; type: functional
Proteus vulgaris [5] = assay: Antimicrobial activity against Proteus vulgaris MTCC 1771 by agar streak dilution method; type: functional
Klebsiella pneumoniae [6] = assay: Antimicrobial activity against Klebsiella pneumoniae MTCC 109 by paper disk diffusion method; type: functional
Proteus vulgaris [7] = assay: Antimicrobial activity against Proteus vulgaris MTCC 1771 by paper disk diffusion method; type: functional
[8] = tested on: Mycobacterium tuberculosis; assay: Antimicrobial activity against Mycobacterium tuberculosis H37Rv by BACTEC MGIT method; type: functional; conditions: Mycobacterium tuberculosis, H37Rv
Klebsiella pneumoniae [9] = assay: Antimicrobial activity against Klebsiella pneumoniae MTCC 109 by agar streak dilution method; type: functional
[10] = tested on: Mycobacterium tuberculosis; assay: Antimicrobial activity against Mycobacterium tuberculosis H37Rv at 100 ug/ml by BACTEC MGIT method; type: functional, organism-based
Aspergillus clavatus [11] = assay: Antimicrobial activity against Aspergillus clavatus MTCC 1323 by paper disk diffusion method; type: functional
Bacillus cereus [12] = assay: Antimicrobial activity against Bacillus cereus MTCC 619 by paper disk diffusion method; type: functional
Bacillus cereus [13] = assay: Antimicrobial activity against Bacillus cereus MTCC 619 by agar streak dilution method; type: functional
Aspergillus fumigatus [14] = assay: Antimicrobial activity against Aspergillus fumigatus MTCC 343 at 100 ug/ml by paper-disk diffusion method; type: functional, organism-based
Shigella flexneri [15] = assay: Antimicrobial activity against Shigella flexneri MTCC 1457 by paper disk diffusion method; type: functional
Pseudomonas aeruginosa [16] = assay: Antimicrobial activity against Pseudomonas aeruginosa MTCC 741 at 100 ug/ml by paper disk diffusion method; type: functional, organism-based
Aspergillus niger [17] = assay: Antimicrobial activity against Aspergillus niger MTCC 282 by agar streak dilution method; type: functional
Escherichia coli [18] = assay: Antimicrobial activity against Escherichia coli MTCC 739 by paper disk diffusion method; type: functional
Shigella flexneri [19] = assay: Antimicrobial activity against Shigella flexneri MTCC 1457 by agar streak dilution method; type: functional
Candida albicans [20] = assay: Antimicrobial activity against Candida albicans MTCC 183 by paper-disk diffusion method; type: functional
Staphylococcus aureus [21] = assay: Antimicrobial activity against Staphylococcus aureus MTCC 96 by agar streak dilution method; type: functional
Escherichia coli [22] = assay: Antimicrobial activity against Escherichia coli MTCC 739 by agar streak dilution method; type: functional
[23] = tested on: Mycobacterium tuberculosis; assay: Antimicrobial activity against Mycobacterium tuberculosis H37Rv by Lowenstein and Jensen method; type: functional; conditions: for MIC: Mycobacterium tuberculosis, H37Rv
Aspergillus clavatus [24] = assay: Antimicrobial activity against Aspergillus clavatus MTCC 1323 by agar streak dilution method; type: functional
Salmonella typhi [25] = assay: Antimicrobial activity against Salmonella enterica subsp. enterica serovar Typhi MTCC 733 by agar streak dilution method; type: functional
Pseudomonas aeruginosa [26] = assay: Antimicrobial activity against Pseudomonas aeruginosa MTCC 741 by agar streak dilution method; type: functional
Aspergillus fumigatus [27] = assay: Antimicrobial activity against Aspergillus fumigatus MTCC 343 by paper-disk diffusion method; type: functional
Aspergillus fumigatus [28] = assay: Antimicrobial activity against Aspergillus fumigatus MTCC 343 by agar streak dilution method; type: functional
Pseudomonas aeruginosa [29] = assay: Antimicrobial activity against Pseudomonas aeruginosa MTCC 741 by paper disk diffusion method; type: functional
Shigella flexneri [30] = assay: Antimicrobial activity against Shigella flexneri MTCC 1457 at 100 ug/ml by paper-disk diffusion method; type: functional, organism-based

| Structure (SMILES) | MIC (Candida albicans [1]) [µg/mL] | inhibition zone (IZ) (Staphylococcus aureus [2]) [mm] | inhibition zone (IZ) (Salmonella typhi [3]) [mm] | inhibition zone (IZ) (Aspergillus niger [4]) [mm] | MIC (Proteus vulgaris [5]) [µg/mL] | inhibition zone (IZ) (Klebsiella pneumoniae [6]) [mm] | inhibition zone (IZ) (Proteus vulgaris [7]) [mm] | MIC [8] [µg/mL] | MIC (Klebsiella pneumoniae [9]) [µg/mL] | inhibition [10] | inhibition zone (IZ) (Aspergillus clavatus [11]) [mm] | inhibition zone (IZ) (Bacillus cereus [12]) [mm] | MIC (Bacillus cereus [13]) [µg/mL] | MIC (Aspergillus niger [17]) [µg/mL] | inhibition zone (IZ) (Escherichia coli [18]) [mm] | inhibition zone (IZ) (Candida albicans [20]) [mm] | MIC (Staphylococcus aureus [21]) [µg/mL] | MIC (Escherichia coli [22]) [µg/mL] | inhibition (percent inhibition) [23] [%] | MIC [23] [µg/mL] | further results |
| --- | --- | --- | --- | --- | --- | --- | --- | --- | --- | --- | --- | --- | --- | --- | --- | --- | --- | --- | --- | --- | --- |
| N#Cc1ccc(Nc2nc(Oc3ncnc4ccccc34)nc(N3CCN(Cc4ccccc4)CC3)n2)cc1C(F)(F)F | 100 (≈ 171 µM) | 22 | 23 | 21 | 100 (≈ 171 µM) | 23 | 21 | > 6.25 | 100 (≈ 171 µM) | inactive | 20 | 23 | 100 (≈ 171 µM) | 100 (≈ 171 µM) | 21 | 21 | 50 (≈ 85.7 µM) | 100 (≈ 171 µM) | 95 | 500 (≈ 857 µM) | inhibition zone (IZ) (Aspergillus fumigatus [14]): inactive; inhibition zone (IZ) (Shigella flexneri [15]): 20 mm; inhibition zone (IZ) (Pseudomonas aeruginosa [16]): inactive; MIC (Shigella flexneri [19]): 100 µg/mL (≈ 171 µM); MIC (Aspergillus clavatus [24]): 100 µg/mL (≈ 171 µM); MIC (Salmonella typhi [25]): 100 µg/mL (≈ 171 µM) |
| N#Cc1ccc(Nc2nc(Oc3ncnc4ccccc34)nc(N3CCN(c4ccc(F)cc4)CC3)n2)cc1C(F)(F)F | 6.25 (≈ 10.6 µM) | 28 | 27 | 25 | 12.5 (≈ 21.3 µM) | 23 | 24 | > 6.25 | 25 (≈ 42.6 µM) | inactive | 24 | 26 | 12.5 (≈ 21.3 µM) | 12.5 (≈ 21.3 µM) | 25 | 27 | 6.25 (≈ 10.6 µM) | 25 (≈ 42.6 µM) | 98 | 12.5 (≈ 21.3 µM) | MIC (Pseudomonas aeruginosa [26]): 6.25 µg/mL (≈ 10.6 µM); inhibition zone (IZ) (Aspergillus fumigatus [27]): 24 mm; inhibition zone (IZ) (Shigella flexneri [15]): 23 mm; inhibition zone (IZ) (Pseudomonas aeruginosa [16]): inactive; MIC (Shigella flexneri [19]): 50 µg/mL (≈ 85.1 µM); MIC (Aspergillus fumigatus [28]): 12.5 µg/mL (≈ 21.3 µM); MIC (Aspergillus clavatus [24]): 12.5 µg/mL (≈ 21.3 µM); inhibition zone (IZ) (Pseudomonas aeruginosa [29]): 28 mm; MIC (Salmonella typhi [25]): 6.25 µg/mL (≈ 10.6 µM) |
| N#Cc1ccc(Nc2nc(Oc3ncnc4ccccc34)nc(N3CCC(Cc4ccccc4)CC3)n2)cc1C(F)(F)F | 100 (≈ 172 µM) | 23 | 22 | 21 | 25 (≈ 42.9 µM) | 23 | 23 | > 6.25 | 100 (≈ 172 µM) | inactive | 20 | 23 | 100 (≈ 172 µM) | 100 (≈ 172 µM) | 21 | 22 | 100 (≈ 172 µM) | 100 (≈ 172 µM) | 94 | 500 (≈ 858 µM) | inhibition zone (IZ) (Shigella flexneri [30]): inactive; MIC (Pseudomonas aeruginosa [26]): 100 µg/mL (≈ 172 µM); inhibition zone (IZ) (Aspergillus fumigatus [27]): 21 mm; MIC (Aspergillus fumigatus [28]): 100 µg/mL (≈ 172 µM); MIC (Aspergillus clavatus [24]): 100 µg/mL (≈ 172 µM); inhibition zone (IZ) (Pseudomonas aeruginosa [29]): 19 mm; MIC (Salmonella typhi [25]): 100 µg/mL (≈ 172 µM) |
| CC(C)N1CCN(c2nc(Nc3ccc(C#N)c(C(F)(F)F)c3)nc(Oc3ncnc4ccccc34)n2)CC1 | 50 (≈ 93.4 µM) | 25 | 23 | 22 | 25 (≈ 46.7 µM) | 22 | 24 | > 6.25 | 50 (≈ 93.4 µM) | inactive | 23 | 23 | 50 (≈ 93.4 µM) | 100 (≈ 187 µM) | 27 | 23 | 25 (≈ 46.7 µM) | 12.5 (≈ 23.3 µM) | 97 | 50 (≈ 93.4 µM) | inhibition zone (IZ) (Shigella flexneri [30]): inactive; MIC (Pseudomonas aeruginosa [26]): 12.5 µg/mL (≈ 23.3 µM); inhibition zone (IZ) (Aspergillus fumigatus [27]): 23 mm; MIC (Aspergillus fumigatus [28]): 50 µg/mL (≈ 93.4 µM); MIC (Aspergillus clavatus [24]): 25 µg/mL (≈ 46.7 µM); inhibition zone (IZ) (Pseudomonas aeruginosa [29]): 24 mm; MIC (Salmonella typhi [25]): 50 µg/mL (≈ 93.4 µM) |
